Values quoted from earlier work as cited in patent US6713046B1, “Magnetic resonance imaging agents for the delivery of therapeutic agents” (Research Corporation Technologies, priority 1997, dated 2004).

Details: thermodynamic stability of the Gd(III) chelate complex; background statement

stability constant (K), formation constant, logK: 28.5
SMILES: O=C([O-])CN1CCN(CC(=O)[O-])CCN(CC(=O)O)CCN(CC(=O)[O-])CC1.[Gd+3] [Gd-DOTA]
